The source of these data is patent US8952043B2, “Benzoxepin PI3K inhibitor compounds and methods of use” (Genentech, Inc., priority 2009, dated 2015).

Holding throughout (assay type): cell-based
One test concerns KPL4. The experiment in a line: CellTiter-Glo cell proliferation assay, KPL4. The following applies: Breast, mutation status PI3K. The protocol:
(§1) The in vitro potency of Formula I exemplary compounds was measured by the cell proliferation assay, CellTiter-Glo® Luminescent Cell Viability Assay, commercially available from Promega Corp., Madison, Wis. (Example 602). This homogeneous assay method is based on the recombinant expression of Coleoptera luciferase (U.S. Pat. Nos. 5,583,024; 5,674,713; 5,700,670) and determines the number of viable cells in culture based on quantitation of the ATP present, an indicator of metabolically active cells (Crouch et al (1993) J. Immunol. Meth. 160:81-88; U.S. Pat. No. 6,602,677). The CellTiter-Glo® Assay was conducted in 96 or 384 well format, making it amenable to automated high-throughput screening (HTS) (Cree et al (1995) AntiCancer Drugs 6:398-404). The homogeneous assay procedure involves adding the single reagent (CellTiter-Glo® Reagent) directly to cells cultured in serum-supplemented medium. Cell washing, removal of medium and multiple pipetting steps are not required. The system detects as few as 15 cells/well in a 384-well format in 10 minutes after adding reagent and mixing.
(§2) Efficacy of Formula I compounds were measured by a cell proliferation assay employing the following protocol (Promega Corp. Technical Bulletin TB288; Mendoza et al (2002) Cancer Res. 62:5485-5488):
1. […]
(§3) 7. The plate was incubated at room temperature for 10 minutes to stabilize the luminescence signal.
(§4) 8. Luminescence was recorded and reported in graphs as RLU=relative luminescence units.
(§5) Alternatively, cells were seeded at optimal density in a 96 well plate and incubated for 4 days in the presence of test compound. Alamar Blue™ was subsequently added to the assay medium, and cells were incubated for 6 hr before reading at 544 nm excitation, 590 nm emission. EC50 values were calculated using a sigmoidal dose response curve fit. […]
(§6) The anti-proliferative effects of Formula I exemplary compounds were measured by the CellTiter-Glo® Assay against various tumor cell lines, including the following: […]
Background: Cellular ATP, detected with luciferase, serves as a proxy for viable cell number.

The subject of another test is SKBR3. The experiment in a line: CellTiter-Glo cell proliferation assay, SKBR3. Conditions: Homo sapiens, SK-BR-3, Breast, mutation status WT. The protocol: The in vitro potency of Formula I exemplary compounds was measured by the cell proliferation assay, CellTiter-Glo® Luminescent Cell Viability Assay, commercially available from Promega Corp., Madison, Wis. (Example 602). This homogeneous assay method is based on the recombinant expression of Coleoptera luciferase (U.S. Pat. Nos. 5,583,024; 5,674,713; 5,700,670) and determines the number of viable cells in culture based on quantitation of the ATP present, an indicator of metabolically active cells (Crouch et al (1993) J. Immunol. Meth. 160:81-88; U.S. Pat. No. 6,602,677). […]
Efficacy of Formula I compounds were measured by a cell proliferation assay employing the following protocol (Promega Corp. Technical Bulletin TB288; Mendoza et al (2002) Cancer Res. 62:5485-5488): […]
as §3, §4, §5

The test system of another test is EVSA-T. The experiment in a line: CellTiter-Glo cell proliferation assay, EVSA-T. Conditions: Homo sapiens, Breast, mutation status PTEN. The protocol:
as §1, §2
(§7) 1. An aliquot of 100 μl of cell culture containing about 10^4 cells (PC3, Detroit562, or MDAMB361.1) in medium was deposited in each well of a 384-well, opaque-walled plate.
(§8) 2. Control wells were prepared containing medium and without cells.
(§9) 3. The compound was added to the experimental wells and incubated for 3-5 days.
(§10) 4. The plates were equilibrated to room temperature for approximately 30 minutes.
(§11) 5. A volume of CellTiter-Glo Reagent equal to the volume of cell culture medium present in each well was added.
(§12) 6. The contents were mixed for 2 minutes on an orbital shaker to induce cell lysis.
as §3, §4
(§13) Alternatively, cells were seeded at optimal density in a 96 well plate and incubated for 4 days in the presence of test compound. Alamar Blue™ was subsequently added to the assay medium, and cells were incubated for 6 hr before reading at 544 nm excitation, 590 nm emission. EC50 values were calculated using a sigmoidal dose response curve fit. […] It is commonly used as a measure of drug potency.
as §6

In another test the test system is AU565. The test can be described thus: CellTiter-Glo cell proliferation assay, AU565. Conditions: Homo sapiens, Breast, mutation status WT. The protocol:
as §1, §2, §7, §8, §9, §10, §11, §12, §3, §4, §13, §6

The subject of the next test is MFM223. The test can be described thus: CellTiter-Glo cell proliferation assay, MFM223. The following applies: Homo sapiens, MFM-223, Breast, mutation status PI3K. The protocol:
as §1, §2
1. […]
as §3, §4, §5, §6

The subject of the next test is BT474. The experiment in a line: CellTiter-Glo cell proliferation assay, BT474. The following applies: Homo sapiens, BT-474, Breast, mutation status PI3K(amped). The protocol:
as §1, §2
1. […]
as §3, §4, §5, §6

Another test relates to H2122. The test can be described thus: CellTiter-Glo cell proliferation assay, H2122. Conditions: Homo sapiens, NCI-H2122, Lung(NSCLC), mutation status K-RAS. The protocol: as §1, §2
1. […]
as §3, §4, §5, §6

In the next test the test system is PC3. The experiment in a line: CellTiter-Glo cell proliferation assay, PC3. Conditions: Homo sapiens, PC-3, Prostate, mutation status PTEN. The protocol:
as §1, §2
1. […]
as §3, §4, §5, §6

Another test concerns T47D. The test can be described thus: CellTiter-Glo cell proliferation assay, T47D. Conditions: Homo sapiens, Breast, mutation status PI3K. The protocol:
as §1, §2
1. […]
as §3, §4, §5, §6

The test system of a further test is MDA-MB-361.1. The experiment in a line: CellTiter-Glo cell proliferation assay, MDA-MB-361.1. Conditions: Breast, mutation status PI3K. The protocol:
as §1, §2, §7, §8, §9, §10, §11, §12, §3, §4, §13, §6

For another test, the system named is HCC1954. The experiment in a line: CellTiter-Glo cell proliferation assay, HCC1954. Conditions: Homo sapiens, Breast, mutation status PI3K. The protocol: as §1, §2
1. […]
as §3, §4, §5, §6

As for `Cc1nc(-c2nc3c(s2)CCOc2cc(-c4cn(CCO)cn4)ccc2-3)n(C(C)C)n1` [compound 440, 2-{4-[2-(2-Isopropyl-5-methyl-2H-[1,2,4]triazol-3-yl)-4,5-dihydro-6-oxa-3-thia-1-aza-benzo[e]azulen-8-yl]-imidazol-1-yl}-ethanol], the EC50 (as a rule, the concentration at which the effect is half-maximal) amounted to 338 nM in the test with KPL4; 1730 nM in the test with SKBR3; 4930 nM with EVSA-T; 1240 nM in the test with AU565; 4410 nM in the test on MFM223; 1630 nM with BT474. In addition, the concentration giving a half-maximal response (EC50) in the test with H2122 came to 10000 nM; with PC3, 3030 nM; in the test with T47D, 569 nM; in the test with MDA-MB-361.1 it was 2610 nM; in the test with HCC1954 it was 1620 nM.
